Values belong to the compound of their own block, whether it stands above or below them.
Columns and labels:
M4 muscarinic receptor [1] = target: T1, M4 muscarinic receptor (Homo sapiens, UniProt P08173); experiment: R-SAT agonist assay; format: cell-based; parameters: expressed in transfected cells; host or cells: NIH/3T3; conditions: relative to carbachol, No response/nr = no agonist activity up to 10 μM
T1 sequence (P08173 1-479): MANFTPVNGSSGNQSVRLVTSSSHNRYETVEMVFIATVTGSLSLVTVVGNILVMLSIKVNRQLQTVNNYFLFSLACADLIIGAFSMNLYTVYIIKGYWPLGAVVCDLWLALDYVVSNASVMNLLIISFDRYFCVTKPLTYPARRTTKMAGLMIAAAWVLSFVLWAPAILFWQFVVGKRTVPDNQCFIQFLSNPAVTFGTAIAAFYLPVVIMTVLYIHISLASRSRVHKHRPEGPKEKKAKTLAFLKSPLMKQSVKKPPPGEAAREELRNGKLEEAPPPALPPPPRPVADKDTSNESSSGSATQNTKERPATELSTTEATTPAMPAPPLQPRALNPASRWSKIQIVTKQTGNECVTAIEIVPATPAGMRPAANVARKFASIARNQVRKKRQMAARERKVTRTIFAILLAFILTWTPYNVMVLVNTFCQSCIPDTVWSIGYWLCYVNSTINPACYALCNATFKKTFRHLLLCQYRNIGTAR

M5 muscarinic receptor [2] = target: T2, M5 muscarinic receptor (Homo sapiens, UniProt P08912); experiment: R-SAT agonist assay; format: cell-based; parameters: expressed in transfected cells; host or cells: NIH/3T3; conditions: R-SAT; relative to carbachol; No response/nr = no agonist activity up to 10 μM
T2 sequence (P08912 1-532): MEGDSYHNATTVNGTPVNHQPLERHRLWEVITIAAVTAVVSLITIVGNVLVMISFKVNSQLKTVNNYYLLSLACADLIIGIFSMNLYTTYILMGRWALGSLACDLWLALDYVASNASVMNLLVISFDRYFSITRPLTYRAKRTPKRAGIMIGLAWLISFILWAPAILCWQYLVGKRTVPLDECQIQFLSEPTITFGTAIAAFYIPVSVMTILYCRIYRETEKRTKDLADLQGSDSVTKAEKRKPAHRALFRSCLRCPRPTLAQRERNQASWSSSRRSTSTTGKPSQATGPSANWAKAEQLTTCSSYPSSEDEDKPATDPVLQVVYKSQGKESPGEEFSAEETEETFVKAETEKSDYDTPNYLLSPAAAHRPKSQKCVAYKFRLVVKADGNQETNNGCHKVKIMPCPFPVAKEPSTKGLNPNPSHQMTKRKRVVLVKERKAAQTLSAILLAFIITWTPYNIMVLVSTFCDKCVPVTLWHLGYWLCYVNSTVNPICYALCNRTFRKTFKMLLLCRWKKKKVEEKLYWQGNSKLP

M1 muscarinic receptor [3] = target: T3, M1 muscarinic receptor (Homo sapiens, UniProt P11229); experiment: R-SAT agonist assay; format: cell-based; parameters: expressed in transfected cells; host or cells: NIH/3T3
T3 sequence (P11229 1-460): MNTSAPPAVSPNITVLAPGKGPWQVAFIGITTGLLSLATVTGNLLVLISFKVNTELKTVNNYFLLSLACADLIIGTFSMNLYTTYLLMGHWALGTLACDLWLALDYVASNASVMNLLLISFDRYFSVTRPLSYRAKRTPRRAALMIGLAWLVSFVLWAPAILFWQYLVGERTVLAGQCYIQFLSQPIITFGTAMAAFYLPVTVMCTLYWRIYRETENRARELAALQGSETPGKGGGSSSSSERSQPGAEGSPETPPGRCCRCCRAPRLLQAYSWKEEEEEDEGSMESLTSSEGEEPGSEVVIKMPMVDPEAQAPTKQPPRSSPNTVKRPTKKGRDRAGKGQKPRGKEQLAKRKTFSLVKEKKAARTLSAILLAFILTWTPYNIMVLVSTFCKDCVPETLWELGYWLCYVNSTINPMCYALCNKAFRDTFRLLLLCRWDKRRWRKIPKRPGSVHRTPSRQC

[4] = target: human monoaminergic receptors; experiment: R-SAT functional profiling; format: cell-based; conditions: data not shown
Source text: It has long been appreciated that antagonism of central muscarinic receptors can attenuate the EPS induced by antipsychotics (Miller and Hiley 1974). […] .

M3 muscarinic receptor [5] = target: T4, M3 muscarinic receptor (Homo sapiens, UniProt P20309); experiment: R-SAT competitive antagonist assay; format: cell-based; conditions: nr = no significant antagonist or inverse agonist activity up to 1 μM, nr* = nr but significant agonist activity
[6] = target: T5, α1A (Alpha 1A) adrenergic receptor (Homo sapiens, UniProt P35348); conditions: R-SAT; nr = no significant antagonist or inverse agonist activity up to 1 μM; nr* = nr but significant agonist activity
T5 sequence (P35348 1-466): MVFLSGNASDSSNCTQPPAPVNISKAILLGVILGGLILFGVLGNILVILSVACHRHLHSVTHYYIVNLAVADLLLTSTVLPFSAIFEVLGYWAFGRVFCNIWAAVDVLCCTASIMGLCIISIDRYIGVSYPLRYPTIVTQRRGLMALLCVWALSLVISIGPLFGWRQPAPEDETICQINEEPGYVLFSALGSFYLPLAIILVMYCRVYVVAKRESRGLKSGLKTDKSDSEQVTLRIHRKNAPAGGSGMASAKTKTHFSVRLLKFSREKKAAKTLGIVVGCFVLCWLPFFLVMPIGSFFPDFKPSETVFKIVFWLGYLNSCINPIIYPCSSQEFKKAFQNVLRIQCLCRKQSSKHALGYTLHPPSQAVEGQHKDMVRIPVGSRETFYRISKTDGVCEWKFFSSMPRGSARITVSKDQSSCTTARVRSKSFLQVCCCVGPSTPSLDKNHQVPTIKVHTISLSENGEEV

[7] = target: T5, α1A (Alpha 1A) adrenergic receptor; experiment: cell-based
5-HT6A receptor = 5-HT6A receptor (Homo sapiens, UniProt P50406); experiment: R-SAT inverse agonist assay; conditions: R-SAT; nr = no significant antagonist or inverse agonist activity up to 1 μM
5-HT7A receptor = 5-HT7A receptor (Homo sapiens, UniProt P34969); experiment: R-SAT inverse agonist assay
5-HT1A receptor [8] = target: T6, 5-HT1A receptor (Homo sapiens, UniProt P08908); experiment: R-SAT competitive antagonist assay
T6 sequence (P08908 1-422): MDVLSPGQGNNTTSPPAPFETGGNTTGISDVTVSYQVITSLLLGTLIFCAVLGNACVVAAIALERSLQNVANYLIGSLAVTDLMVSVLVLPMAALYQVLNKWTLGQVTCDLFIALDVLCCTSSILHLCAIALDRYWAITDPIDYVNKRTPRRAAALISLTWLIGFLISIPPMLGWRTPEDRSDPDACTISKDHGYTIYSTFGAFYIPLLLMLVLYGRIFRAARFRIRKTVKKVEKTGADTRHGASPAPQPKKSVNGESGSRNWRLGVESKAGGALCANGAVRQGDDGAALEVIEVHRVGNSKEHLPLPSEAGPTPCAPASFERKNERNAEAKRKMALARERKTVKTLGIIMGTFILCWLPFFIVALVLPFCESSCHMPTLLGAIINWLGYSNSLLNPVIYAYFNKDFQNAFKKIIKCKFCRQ

M4 muscarinic receptor [9] = target: T1, M4 muscarinic receptor; experiment: R-SAT competitive antagonist assay; conditions: nr = no significant antagonist or inverse agonist activity up to 1 μM, nr* = nr but significant agonist activity
M5 muscarinic receptor [10] = target: T2, M5 muscarinic receptor; experiment: R-SAT competitive antagonist assay; conditions: nr = no significant antagonist or inverse agonist activity up to 1 μM, nr* = nr but significant agonist activity
M1 muscarinic receptor [11] = target: T3, M1 muscarinic receptor; experiment: R-SAT competitive antagonist assay; format: cell-based; parameters: expressed in transfected cells; host or cells: NIH/3T3; conditions: nr = no significant antagonist or inverse agonist activity up to 1 μM, nr* = nr but significant agonist activity
M2 muscarinic receptor [12] = target: T7, M2 muscarinic receptor (Homo sapiens, UniProt P08172); experiment: R-SAT competitive antagonist assay; format: cell-based; parameters: expressed in transfected cells; host or cells: NIH/3T3; conditions: nr = no significant antagonist or inverse agonist activity up to 1 μM, nr* = nr but significant agonist activity
T7 sequence (P08172 1-466): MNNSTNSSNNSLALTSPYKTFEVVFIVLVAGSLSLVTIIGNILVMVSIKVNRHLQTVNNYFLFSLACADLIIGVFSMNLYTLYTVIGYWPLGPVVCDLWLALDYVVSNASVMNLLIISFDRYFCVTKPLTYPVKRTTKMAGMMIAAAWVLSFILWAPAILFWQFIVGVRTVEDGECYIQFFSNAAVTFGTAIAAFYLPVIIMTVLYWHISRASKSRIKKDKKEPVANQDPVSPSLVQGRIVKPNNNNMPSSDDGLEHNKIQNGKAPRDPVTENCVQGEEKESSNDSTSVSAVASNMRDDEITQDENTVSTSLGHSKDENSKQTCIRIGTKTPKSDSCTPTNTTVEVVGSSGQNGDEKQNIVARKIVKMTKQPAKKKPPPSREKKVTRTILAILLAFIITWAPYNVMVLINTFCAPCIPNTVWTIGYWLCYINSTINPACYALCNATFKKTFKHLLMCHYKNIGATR

5-HT1A receptor [13] = target: T6, 5-HT1A receptor; experiment: R-SAT agonist assay; format: cell-based; parameters: expressed in transfected cells; host or cells: NIH/3T3; conditions: relative to 8-OH-DPAT
M2 muscarinic receptor [14] = target: T7, M2 muscarinic receptor; experiment: R-SAT agonist assay; conditions: R-SAT; relative to carbachol; No response/nr = no agonist activity up to 10 μM
[15] = system: apomorphine-induced climbing; experiment: Reversal of apomorphine-induced climbing; conditions: s.c.
M3 muscarinic receptor [16] = target: T4, M3 muscarinic receptor; experiment: R-SAT agonist assay; conditions: R-SAT; relative to carbachol; No response/nr = no agonist activity up to 10 μM
[17] = system: MK-801-induced hyperactivity; experiment: Reversal of MK-801-induced hyperactivity; format: in vivo, Non-Swiss Albino (NSA) mice
Source text: Clinically effective antipsychotic drugs can block the behavioral effects of non-competitive N-methyl-D-aspartate […], such as MK-801. […]. […]

[18] = system: amphetamine-induced hyperactivity; experiment: Reversal of amphetamine-induced hyperactivity; format: in vivo, Non-Swiss Albino (NSA) mice; conditions: p.o.
[19] = Serum levels during clozapine treatment of schizophrenic patients; format: in vivo, human
Experimental: The analysis was adjusted for baseline level of symptom severity, age, and dose, since dose was not fixed. […] Regarding co-treatment with anticholinergic agents, only two subjects in this sample were treated with benztropine. […] Lastly, ten of the patients in this study were treated with benzodiazepines at the time the levels of clozapine and NDMC were measured.
Patients were classified as treatment resistant or not by standard criteria (Kane et al 1988), and clinical ratings and neuropsychological test scores were obtained by trained raters who were blinded to plasma drug levels.

[20] = clozapine-treated schizophrenics
[21] = clozapine-treated treatment resistant schizophrenics

Chain of 5-HT7A receptor (P34969 1-445 isoform P34969-2): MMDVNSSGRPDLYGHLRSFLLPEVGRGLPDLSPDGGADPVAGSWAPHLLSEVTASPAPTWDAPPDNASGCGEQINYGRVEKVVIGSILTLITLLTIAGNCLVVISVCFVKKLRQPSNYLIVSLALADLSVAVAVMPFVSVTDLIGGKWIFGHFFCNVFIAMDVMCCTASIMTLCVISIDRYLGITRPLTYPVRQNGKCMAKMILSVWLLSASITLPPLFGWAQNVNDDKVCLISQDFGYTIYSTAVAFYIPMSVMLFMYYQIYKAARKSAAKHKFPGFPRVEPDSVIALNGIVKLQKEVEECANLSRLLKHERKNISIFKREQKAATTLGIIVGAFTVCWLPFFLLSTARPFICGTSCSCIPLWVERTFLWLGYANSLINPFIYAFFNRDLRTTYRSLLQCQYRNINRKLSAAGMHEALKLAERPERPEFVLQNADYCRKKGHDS
T4 sequence (P20309 whole entry): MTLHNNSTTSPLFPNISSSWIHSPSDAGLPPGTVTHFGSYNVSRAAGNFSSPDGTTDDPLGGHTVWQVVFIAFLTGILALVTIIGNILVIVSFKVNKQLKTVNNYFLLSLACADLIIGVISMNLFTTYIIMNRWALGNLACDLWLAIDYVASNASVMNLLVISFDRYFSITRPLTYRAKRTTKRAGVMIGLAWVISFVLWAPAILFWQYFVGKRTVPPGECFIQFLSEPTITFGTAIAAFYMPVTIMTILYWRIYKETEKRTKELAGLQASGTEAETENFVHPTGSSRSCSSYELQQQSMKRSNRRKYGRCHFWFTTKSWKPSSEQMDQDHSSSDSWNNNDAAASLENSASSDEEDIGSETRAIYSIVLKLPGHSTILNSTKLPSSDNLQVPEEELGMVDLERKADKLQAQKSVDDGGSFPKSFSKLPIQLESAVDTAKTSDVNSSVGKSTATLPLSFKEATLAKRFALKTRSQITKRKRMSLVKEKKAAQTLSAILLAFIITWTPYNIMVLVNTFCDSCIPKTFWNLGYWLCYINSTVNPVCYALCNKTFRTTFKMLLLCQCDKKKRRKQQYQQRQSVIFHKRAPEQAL
Chain of 5-HT6A receptor (P50406 whole entry): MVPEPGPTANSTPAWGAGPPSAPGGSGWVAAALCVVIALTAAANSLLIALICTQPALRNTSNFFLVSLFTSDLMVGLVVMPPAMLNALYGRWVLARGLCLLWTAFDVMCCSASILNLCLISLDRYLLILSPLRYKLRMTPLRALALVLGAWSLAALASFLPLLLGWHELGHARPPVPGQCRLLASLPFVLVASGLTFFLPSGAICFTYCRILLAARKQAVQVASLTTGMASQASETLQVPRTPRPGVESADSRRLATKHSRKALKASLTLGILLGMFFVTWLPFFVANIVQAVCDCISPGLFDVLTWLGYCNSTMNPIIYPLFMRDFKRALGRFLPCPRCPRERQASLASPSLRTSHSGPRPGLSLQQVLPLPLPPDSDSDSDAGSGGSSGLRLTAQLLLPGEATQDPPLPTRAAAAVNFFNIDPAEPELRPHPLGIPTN

SMILES: C[N+](C)(C)CCOC(N)=O [Carbachol]
- M4 Efficacy (M4 muscarinic receptor [1]): 96 ± 3%
- M5 Efficacy (M5 muscarinic receptor [2]): 105 ± 3%

SMILES: Cc1cc2c(s1)Nc1ccccc1N=C2N1CCN(C)CC1 [Olanzapine]
- M2 Efficacy (M2 muscarinic receptor [14]): No response
- M4 Efficacy (M4 muscarinic receptor [1]): No response
- M5 Efficacy (M5 muscarinic receptor [2]): No response

SMILES: O=C(CCCN1CCC(O)(c2ccc(Cl)cc2)CC1)c1ccc(F)cc1 [Haloperidol]
- dose that completely attenuated apomorphine-induced climbing [15]: 0.1 mg/kg

SMILES: Cc1cc2c(s1)Nc1ccccc1N=C2N1CCNCC1 [N-desmethylolanzapine]
- M2 Efficacy (M2 muscarinic receptor [14]): No response
- M3 Efficacy (M3 muscarinic receptor [16]): No response
- M1 Efficacy (M1 muscarinic receptor [3]; R-SAT, relative to carbachol, No response/nr = no agonist activity up to 10 μM): No response
- M4 Efficacy (M4 muscarinic receptor [1]): No response
- M5 Efficacy (M5 muscarinic receptor [2]): No response

More lines, main results first:

- EC50 (M1 muscarinic receptor [3]; R-SAT functional agonist screen of 462-compound library, read-out: EC50 at human M1 receptor): > 1000 nM
SMILES: Cc1ccc(C2(O)CCN(CCCC(=O)c3ccc(F)cc3)CC2)cc1 [Moperone, reference compound]

- pKi, functional activity at human monoaminergic receptors [4]: < 6.0
SMILES: C[N+]1([O-])CCN(C2=Nc3cc(Cl)ccc3Nc3ccccc32)CC1 [clozapine-N-oxide]

- pKi M3, competitive antagonist (M3 muscarinic receptor [5]): nr
- pKi α1A, competitive antagonist [6]: 7.4 ± 0.2
- Ki [7]: 39.8 nM
- pEC50 5HT6A, inverse agonist (5-HT6A receptor): nr
- EC50 (5-HT7A receptor): 50.1 nM
- pEC50 5HT7A, inverse agonist (5-HT7A receptor; R-SAT, nr = no significant antagonist or inverse agonist activity up to 1 μM): 7.3 ± 0.1
- Ki (5-HT1A receptor [8]): > 1000 nM
- pKi 5-HT1A, competitive antagonist (5-HT1A receptor [8]; R-SAT, nr = no significant antagonist or inverse agonist activity up to 1 μM, nr* = nr but significant agonist activity): nr* and nr*^2
- pKi M4, competitive antagonist (M4 muscarinic receptor [9]): nr
- pKi M5, competitive antagonist (M5 muscarinic receptor [10]): nr
- pKi M1, competitive antagonist (M1 muscarinic receptor [11]): nr
- pKi M2, competitive antagonist (M2 muscarinic receptor [12]): nr
- agonist efficacy at human 5-HT1A receptors (5-HT1A receptor [13]): < 30%
SMILES: O=C1Cc2cc(CCN3CCN(c4nsc5ccccc45)CC3)c(Cl)cc2N1 [Ziprasidone, reference compound]

- M4 Efficacy (M4 muscarinic receptor [1]): 116 ± 9%
- M5 Efficacy (M5 muscarinic receptor [2]): 86 ± 12%
SMILES: CCCCCCOc1nsnc1C1=CCCN(C)C1 [Xanomeline]

- Serum level, All Subjects at 6 Months (92) [19, 20]: 365 ± 285 ng/mL
- Serum level, All Subjects at 6 Weeks (86) [19, 20]: 287 ± 190 ng/mL
- Serum level, Non-Responders (25) [19, 21]: 268 ± 207 ng/mL
- Serum level, Responders (26) [19, 21]: 453 ± 328 ng/mL
- Serum level, All TR Subjects (59) ([19]; clozapine-treated treatment resistant schizophrenics, drawn 12 hours after last clozapine dose): 393 ± 301 ng/mL
- M2 Efficacy (M2 muscarinic receptor [14]): 65 ± 8%
- M5 Efficacy (M5 muscarinic receptor [2]): No response and nr
SMILES: CN1CCN(C2=Nc3cc(Cl)ccc3Nc3ccccc32)CC1 [Clozapine, 8-chloro-11-(4-methyl-1-piperazinyl)-5H-dibenzo [b,e][1,4] diazepine, reference compound]
- minimal effective dose, attenuation of MK-801-induced hyperactivity ([17]; p.o.): 3 mg/kg
- minimal effective dose, attenuation of MK-801-induced hyperactivity ([17]; s.c.): 1 mg/kg
- minimal effective dose, reduction of amphetamine-induced hyperactivity [18]: 3 mg/kg
- minimal effective dose, reduction of apomorphine-induced climbing [15]: 10 mg/kg
